Assay results as given in publication PMC6798786 (Brain Communications, 2019).
Where two headings read alike, the source gives them in different places.

Legend:
scn1lab mutant zebrafish [1] = experiment: local field potential (LFP) electrophysiology, electrographic seizure events; format: in vivo, Danio rerio; details: 100 µM; 10 min recording epoch
Procedure: Using a glass micro-electrode positioned under an upright microscope, local field potential (LFP) recordings were obtained from forebrain or optic tectum structures, as described ([Baraban et al., 2005]). Agarose-embedded LFP recording sessions (10 min in duration) were obtained using Axoclamp software (Molecular Devices; Sunnyvale, CA, USA) and sampled at 1 kHz. Epileptiform events were identified post hoc. These were classified as multi-spike or poly-spike upward or downward membrane deflections greater than 3× baseline noise level and 150–250 ms in duration (interictal-like) or greater than 5× baseline noise, multi-spike and >500 ms in duration (ictal-like); both events were counted using threshold detection settings in Clampfit (Molecular Devices; Sunnyvale, CA, USA). Agarose-embedded larvae were continuously monitored for blood flow and heart rate using an Axiocam digital camera at video frame rate.
Monitoring electrographic brain activity to confirm seizure suppression is an essential assay to eliminate false positives from behavioural testing ([Griffin et al., 2018]). By placing a micro-electrode into a visually identified brain region of an agar-immobilized zebrafish larval, stable LFP recordings can be monitored for several hours ([Baraban, 2013]). At 5 days post-fertilization, LFP recordings of scn1Lab zebrafish larvae show an average of 250 abnormal electrographic seizure events during a 10 min recording epoch.

human 5-HT2BR [2] = target: T1, human 5-HT2BR (Homo sapiens, UniProt P41595); experiment: radioligand binding (NIMH PDSP); details: read-out: Ki 5-HT2BR
Procedure: (§1) All in vitro binding assay and Ki data studies were performed by the US National Institute of Mental Health Psychoactive Drug Screening Program (NIMH PDSP). For these studies, drugs were screened against recombinant, stably expressed human 5-HT2AR, 5-HT2BR, 5-HT2CR and H1, as described at https://pdspdb.unc.edu/pdspWeb/ ([Besnard et al., 2012]).

human H1 = human H1 (Homo sapiens, UniProt P35367); experiment: radioligand binding (NIMH PDSP); details: read-out: Ki H1
Procedure: as §1

scn1lab mutant zebrafish [3] = experiment: locomotion (mean swim velocity) seizure-like behaviour assay in scn1lab mutant zebrafish larvae; format: in vivo, Danio rerio; details: for effect on seizure-like swim behaviour, initial library screen: 100 µM or 250 µM, UCSF-synthesized compound; for effect on seizure-like swim behaviour, retest of independently synthesized compound: 10, 50, 100 and 250 µM; for effect on seizure-like swim behaviour, retest of independently synthesized compound / effect on seizure-like swim behaviour, commercially available compounds: 30 and 90 min exposure; for change in vivo at 100 µM / change in vivo at 250 µM: Danio rerio; for effect on seizure-like swim behaviour, commercially available compounds: three concentrations
Procedure: (§2) For locomotion studies, zebrafish larvae (5 days post-fertilization) were placed into a single well of a clear flat-bottomed 96-well microplate containing embryo media. Sex determination is not possible at this stage of development. All drug screening experiments were conducted in an unbiased manner by investigators blinded to the test compounds and all files coded for post hoc analysis. The 96-well plate containing larvae was then placed inside a DanioVision box where they were allowed to acclimate (20 min; room temperature). EthoVision XT software (DanioVision, Noldus Information Technology) was used to obtain locomotion plots (10 min in duration). Seizure scoring was performed, as described ([Baraban et al., 2005]). All locomotion plots were analysed for distance travelled (in millimetres) and mean velocity (in millimetres per second). After 90 min of drug exposure larvae were examined for toxic side-effects. Compounds that decreased or stopped the larva heartbeat, or reduced or eliminated the escape response when touched, were considered toxic.
For behaviour analysis, the threshold for a change in mean swim velocity ≥40% is considered significant (>1.5× SD of 250 control treated scn1lab). Unless otherwise indicated, all data in this manuscript are presented as the mean ± standard error of the mean. […] Statistically significant differences are indicated with asterisks (*P < 0.05; **P < 0.01; ***P < 0.001). […]

human 5-HT2CR = target: T2, human 5-HT2CR (Homo sapiens, UniProt P28335)
T2 sequence (P28335 33-458): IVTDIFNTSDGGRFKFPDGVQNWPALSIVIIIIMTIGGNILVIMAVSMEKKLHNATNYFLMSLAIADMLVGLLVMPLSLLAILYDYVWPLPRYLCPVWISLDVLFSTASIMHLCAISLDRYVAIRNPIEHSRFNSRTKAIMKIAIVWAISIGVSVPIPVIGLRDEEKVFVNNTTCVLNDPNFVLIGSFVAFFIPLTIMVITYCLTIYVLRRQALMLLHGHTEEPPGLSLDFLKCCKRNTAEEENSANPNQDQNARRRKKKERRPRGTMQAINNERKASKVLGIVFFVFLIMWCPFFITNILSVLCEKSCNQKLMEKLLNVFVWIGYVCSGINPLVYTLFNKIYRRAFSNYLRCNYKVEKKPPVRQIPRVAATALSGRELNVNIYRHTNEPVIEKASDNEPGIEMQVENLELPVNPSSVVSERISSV

human 5-HT2AR = human 5-HT2AR (Homo sapiens, UniProt P28223); details: commercially available compounds known to bind 5-HT2BR; ref Roth et al., 2000; read-out: 5-HT2AR (nM), Table S3; cited from earlier work
human 5-HT2BR [4] = target: T1, human 5-HT2BR; details: commercially available compounds known to bind 5-HT2BR; ref Roth et al., 2000; read-out: 5-HT2BR (nM), Table S3; cited from earlier work
[5] = tested on: scn1lab mutant zebrafish larvae; experiment: toxicity check of larvae after 90 min drug exposure (heartbeat, escape response); format: in vivo, Danio rerio; details: 90 min exposure
Procedure: as §2, with “Seizure scoring was performed, as described ([Baraban et al., 2005]).” left out

[6] = read-out: % change in velocity, individual larva 1 (heat map)
[7] = read-out: % change in velocity, individual larva 2 (heat map)
[8] = read-out: % change in velocity, individual larva 3 (heat map)
[9] = read-out: % change in velocity, individual larva 4 (heat map)
[10] = read-out: % change in velocity, individual larva 5 (heat map)
[11] = read-out: % change in velocity, individual larva 6 (heat map)
[12] = read-out: mean velocity change from six fish, Trial 1
[13] = read-out: mean velocity change from six fish, Trial 2
[14] = commercially available compounds known to bind 5-HT2BR; ref Roth et al., 2000; read-out: 5-HT2CR (nM), Table S3; cited from earlier work

Chain of human 5-HT2AR (P28223 whole entry): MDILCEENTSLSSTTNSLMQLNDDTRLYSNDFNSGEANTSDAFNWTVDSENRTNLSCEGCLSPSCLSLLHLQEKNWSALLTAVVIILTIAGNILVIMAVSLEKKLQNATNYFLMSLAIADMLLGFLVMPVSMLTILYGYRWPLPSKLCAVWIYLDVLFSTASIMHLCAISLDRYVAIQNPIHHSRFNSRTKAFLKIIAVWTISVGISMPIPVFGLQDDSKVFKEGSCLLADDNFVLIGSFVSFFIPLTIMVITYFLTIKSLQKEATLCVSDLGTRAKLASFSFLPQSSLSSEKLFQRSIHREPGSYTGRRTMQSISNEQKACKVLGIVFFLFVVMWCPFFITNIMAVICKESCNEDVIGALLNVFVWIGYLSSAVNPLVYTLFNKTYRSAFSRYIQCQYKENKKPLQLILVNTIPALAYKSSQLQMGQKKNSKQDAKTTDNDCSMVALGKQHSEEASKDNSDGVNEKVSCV
T1 sequence (P41595 whole entry): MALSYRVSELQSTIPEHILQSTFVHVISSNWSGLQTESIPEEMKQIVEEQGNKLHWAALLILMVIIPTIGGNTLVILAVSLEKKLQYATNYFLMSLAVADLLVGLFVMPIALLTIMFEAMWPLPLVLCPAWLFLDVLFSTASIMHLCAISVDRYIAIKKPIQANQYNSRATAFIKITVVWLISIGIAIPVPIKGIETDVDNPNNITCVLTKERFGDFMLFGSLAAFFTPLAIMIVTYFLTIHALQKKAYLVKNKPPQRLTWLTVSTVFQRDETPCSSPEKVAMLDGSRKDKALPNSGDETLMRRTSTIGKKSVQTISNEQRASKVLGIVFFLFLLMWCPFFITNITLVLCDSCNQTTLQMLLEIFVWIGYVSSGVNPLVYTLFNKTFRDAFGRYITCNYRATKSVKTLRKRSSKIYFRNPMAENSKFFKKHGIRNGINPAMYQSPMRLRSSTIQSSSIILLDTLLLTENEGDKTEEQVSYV
Chain of human H1 (P35367 whole entry): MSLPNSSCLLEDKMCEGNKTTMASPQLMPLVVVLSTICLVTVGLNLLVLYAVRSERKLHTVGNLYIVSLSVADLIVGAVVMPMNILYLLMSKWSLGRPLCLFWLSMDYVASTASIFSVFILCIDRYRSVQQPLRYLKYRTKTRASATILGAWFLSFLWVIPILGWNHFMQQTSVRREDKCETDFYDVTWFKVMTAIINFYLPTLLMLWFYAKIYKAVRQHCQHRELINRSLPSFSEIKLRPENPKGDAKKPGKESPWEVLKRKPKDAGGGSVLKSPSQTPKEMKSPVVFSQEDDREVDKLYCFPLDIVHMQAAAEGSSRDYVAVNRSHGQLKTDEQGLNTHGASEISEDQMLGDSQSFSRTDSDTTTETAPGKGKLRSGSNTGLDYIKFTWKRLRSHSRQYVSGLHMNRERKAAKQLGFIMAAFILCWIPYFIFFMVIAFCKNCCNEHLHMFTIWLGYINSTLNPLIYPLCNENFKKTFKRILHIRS

Compound | effect on electrographic seizure activity (LFP) (scn1lab mutant zebrafish [1]) | Ki (human 5-HT2BR [2]) [µM] | Ki (human H1) [µM] | effect on seizure-like swim behaviour, initial library screen (scn1lab mutant zebrafish [3]) | effect on seizure-like swim behaviour, retest of independently synthesized compound (scn1lab mutant zebrafish [3]) | change in vivo at 100 µM (scn1lab mutant zebrafish [3]; [6]) [%] | change in vivo at 250 µM (scn1lab mutant zebrafish [3]; [6]) [%] | change in vivo at 100 µM (scn1lab mutant zebrafish [3]; [7]) [%] | change in vivo at 250 µM (scn1lab mutant zebrafish [3]; [7]) [%] | change in vivo at 100 µM (scn1lab mutant zebrafish [3]; [8]) [%] | change in vivo at 250 µM (scn1lab mutant zebrafish [3]; [8]) [%] | change in vivo at 100 µM (scn1lab mutant zebrafish [3]; [9]) [%] | change in vivo at 250 µM (scn1lab mutant zebrafish [3]; [9]) [%] | change in vivo at 100 µM (scn1lab mutant zebrafish [3]; [10]) [%] | change in vivo at 250 µM (scn1lab mutant zebrafish [3]; [10]) [%] | change in vivo at 100 µM (scn1lab mutant zebrafish [3]; [11]) [%] | change in vivo at 250 µM (scn1lab mutant zebrafish [3]; [11]) [%] | change in vivo at 100 µM (scn1lab mutant zebrafish [3]; [12]) [%] | change in vivo at 250 µM (scn1lab mutant zebrafish [3]; [12]) [%] | Ki (human 5-HT2AR) [nM] | other results
c1ccc2c(c1)nc(CN1CCCC1)n2CC1CCCC1 [Compound 20] | significant suppression of electrographic seizure activity | 0.772 | 0.161 | effective in suppressing | reduced the high-velocity seizure-like swim behaviour | 17.3 | -62.7 | -4.1 | -80.4 | -27.1 | -65.9 | -14.1 | -100 | -25.2 | -60.9 | -48.1 | -9.7 | -15.6 | -66.1 |  | change in vivo at 100 µM (scn1lab mutant zebrafish [3]; [13]): -15.6%; change in vivo at 250 µM (scn1lab mutant zebrafish [3]; [13]): -66.1%
Br.CN(C)C1CCc2cc(O)c(O)cc2C1 (stereo not drawn) [TL-99] |  |  |  |  |  |  |  |  |  |  |  |  |  |  |  |  |  |  |  | 2340 | Ki (human 5-HT2CR; [14]): 2290 nM; effect on seizure-like swim behaviour, commercially available compounds (scn1lab mutant zebrafish [3]): failed to elicit any behavioural effect; Ki (human 5-HT2BR [4]): 2040 nM
Clc1cccc(COc2cncc(N3CCNCC3)n2)c1 [CP-809,101] |  |  |  |  |  |  |  |  |  |  |  |  |  |  |  |  |  |  |  | 1.6 | Ki (human 5-HT2CR; [14]): 64 nM; effect on seizure-like swim behaviour, commercially available compounds (scn1lab mutant zebrafish [3]): biphasic response; Ki (human 5-HT2BR [4]): 6 nM
c1cnc(N2CCN(Cc3ccc4c(c3)OCO4)CC2)nc1 [piribedil, Piribedil, reference compound] |  |  |  |  |  |  |  |  |  |  |  |  |  |  |  |  |  |  |  | > 10000 | toxicity at 100 µM ([5]; 100 µM): toxicity; toxicity at 250 µM ([5]; 250 µM): toxicity; Ki (human 5-HT2CR; read-out: 5-HT2CR (nM), Table S3; commercially available compounds known to bind 5-HT2BR; ref Roth et al., 2000; cited from earlier work): > 10000 nM
FC(F)(F)c1ccc(Cn2c(CN3CCCC3)nc3ccccc32)cc1 [Compound 6] | significant suppression of electrographic seizure activity | 0.285 | 0.016 | effective in suppressing | reduced the high-velocity seizure-like swim behaviour | -34.5 | -100 | 38.1 | -91.9 | -51.3 | -100 | 10 | -100 | -75.4 | -79.3 | -79.2 | -92.7 | -40 | -94.7 |  | change in vivo at 100 µM (scn1lab mutant zebrafish [3]; [13]): -76.2%; change in vivo at 250 µM (scn1lab mutant zebrafish [3]; [13]): -90.5%
